# Measurements: patent publication US10662194B2, “Substituted 6-anilino-9-heterocyclylpurine derivatives for inhibition of plant stress” (UNIVERZITA PALACKEHO V OLOMOUCI, priority 2014, dated 2020)
# Marks after values point to notes of the source that are not given here.
# Tested on: Arabidopsis (ecotype Col-0)
# Test: Drenching application, morphological and yield traits of Arabidopsis in soil
# Format: in vivo
# Method: To test the effect on wild-type plants Arabidopsis (ecotype Col-0) was grown in soil in controlled conditions in a growth chambre (16 hours light/8 hours dark; light intensity 120 […]; 22° C.; 60% humidity). In the stage of app. the middle of the principal growth stage 1 and the beginning of principal growth stage 5 (according to Arabidopsis growth stages described by Boyes et al., 2001) 1-10 mL of the compound 12 was applied regulary every third day in 0.1 and 1 μM concentration in different application rates (experiment 1-1 mL of 1 μM compound 12 water solution 12-times; experiment 2-10 mL of 0.1 and 1 μM compound 12 water solution 1-, 3- and 5-times) by drenching to each plant pot. DMSO (0.01%) was used as a solvent control. The plants were grown till the end of the generative stage and then morphological parametres (primary inflorescence stem length, number of auxiliary branches, number of lateral branches, fresh shoot biomass, number of flowers, number of siliques) and the seed yield were recorded.
smiles,measurement,setting,value
"COc1cccc(Nc2nc(Cl)nc3c2ncn3C2CCCCO2)c1 (centres unmarked) [compound 12, 2-chloro-6-(3-methoxyanilino)-9-(tetrahydropyran-2-yl)purine]",No. of auxiliary branches,"0.1 μM, application rate 1x",4.06 ± 1.3
same,No. of auxiliary branches (% of control),"0.1 μM, application rate 1x",(113%)
same,No. of flowers,"0.1 μM, application rate 1x",116.12 ± 70
same,No. of flowers (% of control),"0.1 μM, application rate 1x",(153%)*
same,No. of lateral branches,"0.1 μM, application rate 1x",8.59 ± 3.1
same,No. of lateral branches (% of control),"0.1 μM, application rate 1x",(182%)***
same,No. of siliques,"0.1 μM, application rate 1x",133.94 ± 47
same,No. of siliques (% of control),"0.1 μM, application rate 1x",(100%)
same,fresh shoot biomass,"0.1 μM, application rate 1x",1.18 ± 0.4 g
same,fresh shoot biomass (% of control),"0.1 μM, application rate 1x",(108%)
same,primary inflorescence stem length,"0.1 μM, application rate 1x",32.78 ± 5.5 cm
same,primary inflorescence stem length (% of control),"0.1 μM, application rate 1x",(98%)
same,seed yield per plant,"0.1 μM, application rate 1x",0.30 ± 0.1 g
same,seed yield per plant (% of control),"0.1 μM, application rate 1x",(102%)
same,No. of auxiliary branches,"0.1 μM, application rate 3x",3.82 ± 0.6
same,No. of auxiliary branches (% of control),"0.1 μM, application rate 3x",(106%)
same,No. of flowers,"0.1 μM, application rate 3x",91.23 ± 50.1
same,No. of flowers (% of control),"0.1 μM, application rate 3x",(120%)
same,No. of lateral branches,"0.1 μM, application rate 3x",8.35 ± 3.3
same,No. of lateral branches (% of control),"0.1 μM, application rate 3x",(177%)***
same,No. of siliques,"0.1 μM, application rate 3x",154.29 ± 25.6
same,No. of siliques (% of control),"0.1 μM, application rate 3x",(115%)
same,fresh shoot biomass,"0.1 μM, application rate 3x",1.16 ± 0.2 g
same,fresh shoot biomass (% of control),"0.1 μM, application rate 3x",(106%)
same,primary inflorescence stem length,"0.1 μM, application rate 3x",39.6 ± 3.8 cm
same,primary inflorescence stem length (% of control),"0.1 μM, application rate 3x",(119%)***
same,seed yield per plant,"0.1 μM, application rate 3x",0.31 ± 0.1 g
same,seed yield per plant (% of control),"0.1 μM, application rate 3x",(106%)
same,No. of auxiliary branches,"0.1 μM, application rate 5x",3.94 ± 1.1
same,No. of auxiliary branches (% of control),"0.1 μM, application rate 5x",(109%)
same,No. of flowers,"0.1 μM, application rate 5x",99.59 ± 59.3
same,No. of flowers (% of control),"0.1 μM, application rate 5x",(131%)
same,No. of lateral branches,"0.1 μM, application rate 5x",9.82 ± 4.4
same,No. of lateral branches (% of control),"0.1 μM, application rate 5x",(208%)***
same,No. of siliques,"0.1 μM, application rate 5x",141.24 ± 31.7
same,No. of siliques (% of control),"0.1 μM, application rate 5x",(105%)
same,fresh shoot biomass,"0.1 μM, application rate 5x",1.18 ± 0.3 g
same,fresh shoot biomass (% of control),"0.1 μM, application rate 5x",(108%)
same,primary inflorescence stem length,"0.1 μM, application rate 5x",38.61 ± 5.2 cm
same,primary inflorescence stem length (% of control),"0.1 μM, application rate 5x",(116%)***
same,seed yield per plant,"0.1 μM, application rate 5x",0.35 ± 0.1 g
same,seed yield per plant (% of control),"0.1 μM, application rate 5x",(120%)
same,No. of auxiliary branches,"1 μM, application rate 1x",4.29 ± 1.5
same,No. of auxiliary branches (% of control),"1 μM, application rate 1x",(119%)
same,No. of flowers,"1 μM, application rate 1x",139.65 ± 51.7
same,No. of flowers (% of control),"1 μM, application rate 1x",(184%)***
same,No. of lateral branches,"1 μM, application rate 1x",13.35 ± 4.7
same,No. of lateral branches (% of control),"1 μM, application rate 1x",(283%)***
same,No. of siliques,"1 μM, application rate 1x",134.82 ± 31.1
same,No. of siliques (% of control),"1 μM, application rate 1x",(100%)
same,fresh shoot biomass,"1 μM, application rate 1x",1.17 ± 0.3 g
same,fresh shoot biomass (% of control),"1 μM, application rate 1x",(107%)
same,primary inflorescence stem length,"1 μM, application rate 1x",32.66 ± 3.8 cm
same,primary inflorescence stem length (% of control),"1 μM, application rate 1x",(98%)
same,seed yield per plant,"1 μM, application rate 1x",0.37 ± 0.1 g
same,seed yield per plant (% of control),"1 μM, application rate 1x",(126%)
same,No. of auxiliary branches,"1 μM, application rate 3x",4.29 ± 1.1
same,No. of auxiliary branches (% of control),"1 μM, application rate 3x",(119%)*
same,No. of flowers,"1 μM, application rate 3x",118.53 ± 36.6
same,No. of flowers (% of control),"1 μM, application rate 3x",(156%)***
same,No. of lateral branches,"1 μM, application rate 3x",13.50 ± 3.9
same,No. of lateral branches (% of control),"1 μM, application rate 3x",(286%)***
same,No. of siliques,"1 μM, application rate 3x",155.29 ± 44.1
same,No. of siliques (% of control),"1 μM, application rate 3x",(116%)
same,fresh shoot biomass,"1 μM, application rate 3x",1.23 ± 0.3 g
same,fresh shoot biomass (% of control),"1 μM, application rate 3x",(113%)
same,primary inflorescence stem length,"1 μM, application rate 3x",39.07 ± 3.2 cm
same,primary inflorescence stem length (% of control),"1 μM, application rate 3x",(117%)***
same,seed yield per plant,"1 μM, application rate 3x",0.36 ± 0.1 g
same,seed yield per plant (% of control),"1 μM, application rate 3x",(122%)
same,No. of auxiliary branches,"1 μM, application rate 5x",4.50 ± 1.3
same,No. of auxiliary branches (% of control),"1 μM, application rate 5x",(125%)
same,No. of flowers,"1 μM, application rate 5x",143.56 ± 66.3
same,No. of flowers (% of control),"1 μM, application rate 5x",(189%)***
same,No. of lateral branches,"1 μM, application rate 5x",16.44 ± 6.1
same,No. of lateral branches (% of control),"1 μM, application rate 5x",(349%)***
same,No. of siliques,"1 μM, application rate 5x",220.00 ± 37.4
same,No. of siliques (% of control),"1 μM, application rate 5x",(164%)***
same,fresh shoot biomass,"1 μM, application rate 5x",1.81 ± 0.3 g
same,fresh shoot biomass (% of control),"1 μM, application rate 5x",(166%)***
same,primary inflorescence stem length,"1 μM, application rate 5x",44.66 ± 5.9 cm
same,primary inflorescence stem length (% of control),"1 μM, application rate 5x",(134%)***
same,seed yield per plant,"1 μM, application rate 5x",0.33 ± 0.1 g
same,seed yield per plant (% of control),"1 μM, application rate 5x",(111%)
same,overall shoot biomass,"experiment 1: 1 mL of 1 μM, 12-times, drenching, FIG. 8",stimulation of the overall shoot biomass
same,increase of fresh shoot biomass compared to control,"experiment 2, higher doses",6-22%
same,increase of number of auxiliary branches compared to control,"experiment 2, higher doses",6-25%
same,increase of number of flowers compared to control,"experiment 2, higher doses",20-89%
same,increase of number of lateral branches compared to control,"experiment 2, higher doses",77-249%
same,increase of number of siliques compared to control,"experiment 2, higher doses",5-66%
same,increase of primary inflorescence stem length compared to control,"experiment 2, higher doses",16-34%
same,increase of seed yield compared to control,"experiment 2, higher doses",6-26%
